Laboratory results: ChEMBL document CHEMBL1201862, “PubChem BioAssay data set” (2004)
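96-well plates; 48 h exposure; 5 concentrations. Endpoints by linear interpolation between flanking doses. Not reached: highest tested concentration assigned. Here, GI50 denotes the concentration required for 50% inhibition of growth.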 The source made the active and inactive calls. Cut-off read from the data, not from the text of the source: active = GI50 up to about 1.1 µM and inactive = higher.

Experiments:
Experiment in all cases: growth of human tumour cells (NCI), 48 h
[1] = tested on: SW-620
[2] = tested on: M14
[3] = tested on: K562
[4] = tested on: HT-29
[5] = tested on: SNB-75
[6] = tested on: Malme-3M
[7] = tested on: UO-31
[8] = tested on: OVCAR-8
[9] = tested on: OVCAR-4
[10] = tested on: ACHN
[11] = tested on: NCI-H522
[12] = tested on: HOP-62
[13] = tested on: HCT-15
[14] = tested on: OVCAR-5
[15] = tested on: MOLT-4
[16] = tested on: A498
[17] = tested on: RXF 393
[18] = tested on: HCT-116
[19] = tested on: SK-MEL-5
[20] = tested on: CAKI-1

Structure (SMILES) | GI50 [1] | GI50 [2] | GI50 [3] | GI50 [4] | GI50 [5] | GI50 [6] | GI50 [7] | GI50 [8] | GI50 [9] | GI50 [10] | GI50 [11] | GI50 [12] | GI50 [13] | GI50 [14] | GI50 [15] | GI50 [16] | GI50 [17] | GI50 [18] | GI50 [19] | GI50 [20]
Cc1ccc2nc(/C=N/c3ccc(Cl)cc3)cc(C)c2c1 | 2.07 µM (inactive) | 0.212 µM (active) | 0.147 µM (active) | 2.64 µM (inactive) | 17 µM (inactive) | 2.44 µM (inactive) | 0.381 µM (active) | 10.3 µM (inactive) | 20.3 µM (inactive) | 0.128 µM (active) | 2.65 µM (inactive) | 2.26 µM (inactive) | 0.027 µM | 3.67 µM (inactive) | 1.12 µM (inactive) | > 80.4 µM (inactive) | 24.7 µM (inactive) | 1.08 µM (active) | 2.29 µM (inactive) | 1.38 µM (inactive)
CO[C@H]1O[C@@H]2OC3(C)CCC4[C@H](C)CCC([C@H]1C)[C@]42OO3 (stereo not given in full) | > 100 µM (inactive) | > 100 µM (inactive) | 26.5 µM (inactive) | > 100 µM (inactive) | 85.9 µM (inactive) | > 100 µM (inactive) | 24.8 µM (inactive) | 53.6 µM (inactive) | > 100 µM (inactive) | > 100 µM (inactive) | > 100 µM (inactive) | > 100 µM (inactive) | > 100 µM | > 100 µM (inactive) | 36.6 µM (inactive) | > 100 µM (inactive) | > 100 µM (inactive) | > 100 µM (inactive) | 38 µM (inactive) | > 100 µM (inactive)
COc1cc(-c2cc(=O)c3ccccc3o2)ccc1N | 92.7 µM (inactive) | > 100 µM (inactive) | 60.8 µM (inactive) | 52.8 µM (inactive) | 19.7 µM (inactive) | > 100 µM (inactive) | 18.1 µM (inactive) | 51.9 µM (inactive) | 54.5 µM (inactive) | 47.3 µM (inactive) | 20.5 µM (inactive) | 41 µM (inactive) | 27 µM | 84.7 µM (inactive) | 25.5 µM (inactive) | 27.2 µM (inactive) | 41 µM (inactive) | 54.3 µM (inactive) | 41.1 µM (inactive) | 11.7 µM (inactive)
